# Primed or numbered codes have the meaning given here. Ends that are not written are not given here. FITC′ = fluorescein-5(6)-isothiocyanate; Nova linker = not defined here
# T1: His-tagged Recombinant Mouse E-Cadherin Fc Chimera, P09803
# T1 chain: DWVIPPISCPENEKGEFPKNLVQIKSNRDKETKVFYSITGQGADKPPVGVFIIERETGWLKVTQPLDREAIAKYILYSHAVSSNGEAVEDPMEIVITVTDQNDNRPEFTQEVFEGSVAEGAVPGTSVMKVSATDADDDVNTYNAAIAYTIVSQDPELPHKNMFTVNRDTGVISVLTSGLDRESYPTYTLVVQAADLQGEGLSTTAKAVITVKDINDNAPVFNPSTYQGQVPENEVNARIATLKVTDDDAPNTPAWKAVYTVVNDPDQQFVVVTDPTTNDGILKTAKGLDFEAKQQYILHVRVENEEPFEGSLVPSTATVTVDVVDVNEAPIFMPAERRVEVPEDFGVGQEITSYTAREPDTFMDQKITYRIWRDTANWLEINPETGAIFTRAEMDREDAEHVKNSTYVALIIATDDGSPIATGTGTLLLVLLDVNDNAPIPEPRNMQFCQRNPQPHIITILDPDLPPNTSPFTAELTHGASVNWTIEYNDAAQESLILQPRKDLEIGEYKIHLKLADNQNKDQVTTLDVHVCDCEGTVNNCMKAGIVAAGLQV
# Columns and labels:
# [1] = system: OCT4 protein in wtD3 mESCs; experiment: Immunofluorescence microscopy analysis of OCT4 protein expression with pathway inhibitors; type: cell-based, mouse; conditions: for OCT4 protein expression, inhibitor with vehicle control: wtD3 mESCs, no peptide, after 5 days
# Experimental: (§1) Unless otherwise stated, mESC lines were grown on gelatinised tissue culture grade 6-well plates at 37 °C/5% CO2, as previously described. mESCs cells were treated with 10 μM peptide in mESC culture medium which was replenished every 24 h. Inhibition of specific pathways in mESCs was achieved by incubation with 10 μM LY294002 (PI3K inhibitor), PD9805 (MEK inhibitor) and SB431542 (TGFβ1 R inhibitor).
# (§2) Monolayer cultured mESCs were fixed in situ in 4% w/v PFA in PBS for 30 minutes at room temperature, washed twice with PBS and blocked with 1% goat serum in 0.1% w/v BSA, 0.1% Triton X-100 in PBS for 30 minutes. Cells were incubated in the appropriate primary antibody in goat blocking buffer for two hours at RT. Cells were washed three times in PBS and incubated in the appropriate Alexa fluor-488 or −546 conjugated secondary antibody at RT for 1 hour in the dark. Cells were washed three times with PBS, mounted in 4′6-diamidino-2-phenylindole (DAPI) (Vector Laboratories) and visualized using a Leica DM6000B fluorescence microscope (Leica Microsystems) and processed using Leica LAS X Core software (Leica Microsystems). Primary antibodies: anti-Nanog, 1:200 dilution (ab80892, Abcam Plc, Cambridge, UK); anti-Oct4, 1:200 dilution (ab19857, Abcam Plc, Cambridge, UK). For immunofluorescence microscopy analysis of fluorescent-tagged peptides, cells were incubated in 500 μM peptide in cell culture medium for 15 minutes, washed twice in ice cold PBS and mounted with Vectorshield containing DAPI. Cells were visualized using a Leica DM6000B fluorescence microscope (Leica Microsystems) and processed using Leica LAS X Core software (Leica Microsystems).
# (§3) Images were imported into ImageJ and fluorescence intensity measured using the Analyse > Measure function on areas selected using the rectangular or oval selection icons.
# [2] = system: wtD3 and Ecad−/− mESCs; experiment: Binding of fluorescent-tagged peptides to wtD3 versus Ecad−/− mESCs; type: cell-based, mouse; conditions: fluorescein-tagged peptide, 500 μM, 15 minutes, 37 °C, immunofluorescence microscopy / flow cytometry
# Experimental: D3 and Ecad^−/− mESCs were treated with Epep-F or EpepW2R-F at concentrations of 0 (control), 5, 10, 25, 50 and 500 μM in culture medium as a monolayer on ice. Ice cold conditions were utilised to minimise endocytosis of fluorescent tagged peptide. Cells were harvested using cell dissociation buffer, centrifuged and washed with PBS and fixed in 500 μl 1% w/v paraformaldehyde (PFA) in PBS for analysis using a FACSCalibur (BD Biosciences, California, USA). Viable cells were gated using forward scatter and side scatter and all data shown represents quantification of the fluorescence emitted by this population.
# Monolayer cultured mESCs were fixed in situ in 4% w/v PFA in PBS for 30 minutes at room temperature, washed twice with PBS and blocked with 1% goat serum in 0.1% w/v BSA, 0.1% Triton X-100 in PBS for 30 minutes. Cells were incubated in the appropriate primary antibody in goat blocking buffer for two hours at RT. […] Cells were washed three times with PBS, mounted in 4′6-diamidino-2-phenylindole (DAPI) (Vector Laboratories) and visualized using a Leica DM6000B fluorescence microscope (Leica Microsystems) and processed using Leica LAS X Core software (Leica Microsystems). […] Cells were visualized using a Leica DM6000B fluorescence microscope (Leica Microsystems) and processed using Leica LAS X Core software (Leica Microsystems). […]
# [3] = system: wtD3 mESCs; experiment: Loss of cell-cell contact, phase contrast microscopy; type: cell-based, mouse; conditions: for Effect on cell-cell contact (in words): wtD3 mESCs, 10 μM peptide, 24 h, phase contrast
# Experimental: as §1
# [4] = target: T2, recombinant mouse E-Cadherin Fc Chimera (Mus musculus, UniProt P09803); experiment: Biacore SPR equilibrium binding analysis (affinity capture); conditions: equilibrium analysis using affinity capture on HTE chip, peptide stock in water, average of three runs, running buffer HBS/0.02% Tween/2 mM CaCl2/1 mM MgCl2
# T2 construct: purchased R&D Systems
# Experimental: Biacore SPR analysis was used to measure the interaction between peptides and recombinant mouse E-Cadherin Fc Chimera (R&D Systems). Analytes were passed over an HTE chip with surface bound His-tagged Recombinant Mouse E-Cadherin Fc Chimera (R&D Systems). The kinetics of interaction, i.e. the rates of complex formation (ka) and dissociation (kd), were determined and Integrin α4β7 protein was used as a control. Analysis was performed by the Biomolecular Analysis Core Facility (The University of Manchester, UK) on a Proteon XPR-36 protein interaction array system (Bio-Rad) using a HTE chip for high capacity His-tagged protein capture (Bio-Rad). Equilibrium analysis runs were performed three times and an average KD was calculated. Running buffer: HBS/0.02%, Tween/2 mM, CaCl2/1 mM MgCl2.
# [5] = system: NANOG protein in wtD3 mESCs; experiment: Immunofluorescence microscopy analysis of NANOG protein expression; type: cell-based, mouse; conditions: 96 h / 4 days where stated
# Experimental: as §2, with “For immunofluorescence microscopy analysis of fluorescent-tagged peptides, cells were incubated in 500 μM peptide in cell culture medium for 15 minutes, washed twice in ice cold PBS and mounted with Vectorshield containing DAPI.” left out
# as §3
# [6] = system: STAT3 phosphorylation in wtD3 mESCs; experiment: Western blot analysis of phosphorylated STAT3; type: cell-based, mouse; conditions: wtD3 mESCs vs control treated cells, western blot
# Experimental: as §1
# Cells were harvested using cell dissociation buffer, centrifuged and washed with PBS prior to lysis using Radioimmunoprecipitation (RIPA) buffer (Sigma) containing protease inhibitor cocktail tablets (1 tablet per 10 ml RIPA buffer) (Roche Applied Science) at a concentration of 2 × 10^7 cell/ml. Lysates were separated by SDS-PAGE and electrotransferred onto nitrocellulose membrane as previously described. The membrane was probed using the appropriate primary antibody with subsequent incubation with HRP-conjugated secondary antibody. The membrane was exposed to an autoradiographic film (Hyperfilm ECL, GE Healthcare, Amersham, UK) for the appropriate time period in an X-ray cassette before the film was manually developed in a dark room using Kodak GBX developer and fixer solutions (Sigma, Dorset, UK). Primary antibodies: anti-α-tubulin, 1:2000 dilution (T9026, Sigma, Dorset, UK); anti-AKT, 1:200 dilution (#9272, Cell Signalling Technology, MA, USA); anti-pAKT (Ser473), 1:200 (#4060S, Cell Signalling Technology, MA, USA); anti-STAT3, 1:200 dilution (SC-482, Santa Cruz Biotechnology Inc, TX, USA); anti-pSTAT3, 1:200 dilution (#9138S, Cell Signalling Technology, MA, USA).
# [7] = system: mESCs; experiment: Cell viability in monolayer culture; type: cell-based, mouse; conditions: data not shown
# [8] = system: Nanog, Klf4, Tbx3, Esrrb, Nr0b1, Nr5a2 and Tet1 transcripts in wtD3 mESCs; experiment: qPCR analysis of pluripotency transcript expression; type: cell-based, mouse
# Experimental: as §1
# Primers for qPCR were designed using the Roche Applied science Universal Probe Library software and BLAST screened for sequence specificity. Only primers producing a single dissociation peak were used. RNA was extracted from mESCs and cDNA at a concentration of 2 ng/μl was used for analysis in a MicroAmp Optical 96-well Reaction Plate (Applied Biosystems) using SYBR green Jumpstart Taq ReadyMix (Applied Biosystems). Primer sequences: 18srRNA Forward (F) […], Reverse (R) […]; ESRRB F-[…], R-[…]; KLF4 F-[…], R-ATGTCCGCCAGGTTGAAG; NANOG F-[…], R-[…]; NR0B1 F-[…], R-[…]; NR5A2 F-[…], R-[…]; TBX3 F-[…], R-[…]; TET1 F-[…], R-[…].
# [9] = system: pERK1/2 in wtD3 mESCs; experiment: Western blot analysis of phosphorylated ERK1/2; type: cell-based, mouse
# [10] = system: wtD3 mESCs; type: cell-based; conditions: 24 h, 10 μM
# Excerpt: Cell viability was quantified using an Alexa Fluor 488 Annexin V/Dead Cell Apoptosis Kit (Invitrogen) according to the manufacturer’s instructions.
# [11] = Water solubility of peptides; type: physicochemical
# Experimental: All peptides were synthesised by Severn Biotech Ltd (UK) as a lyophilized powder. Peptides were solubilised to a stock solution of 100 mM in ddH20, unless otherwise stated. Peptides were tagged with a Fluorescin-5(6) molecule at the NH2-terminus, separated by a Nova linker molecule, and assessed for activity prior to use (inhibition of cell-cell contact).
# [12] = target: His-tagged Recombinant Mouse E-Cadherin Fc Chimera (mouse) (UniProt P09803); experiment: SPR; as a1, E-cadherin-Fc captured on the HTE chip; peptide dissolved in 10%v/v DMSO/H2O; EpepP7R at 0.3, 1, 3, 5, 10 μM; equilibrium analysis
# [13] = target: T1, His-tagged Recombinant Mouse E-Cadherin …; experiment: Biacore SPR equilibrium affinity capture analysis; conditions: chain shown with the change
# [14] = transcript, mESCs, Fig. 6a summary
molecule,measurement,setting,value
NC(=O)c1ccc(-c2nc(-c3ccc4c(c3)OCO4)c(-c3ccccn3)[nH]2)cc1 [SB431542],"OCT4 protein expression, inhibitor with vehicle control",[1],maintained expression of OCT4 protein
Cc1c[nH]c(/C=C2\C(=O)Nc3ccccc32)c1CCC(=O)O [SU5402],"OCT4 protein expression, inhibitor with vehicle control",[1],maintained expression of OCT4 protein
Epep-F: Epep with fluorescein-5(6)-isothiocyanate label conjugated to the NH2-terminus via a Nova linker ({FITC′-Nova linker}-SWELYYPLRANL; reading uncertain),Binding of fluorescent-tagged peptide to wtD3 versus Ecad−/− mESCs,[2],preferential binding to wtD3 ESCs
same,Effect on cell-cell contact (in words),[3],loss of cell-cell contact
SAELYYPLRANL [EpepW2A],Kd,[4],55 µM
"SRELYYPLRANL [EpepW2R, Epep with the Trp-2 residue replaced with arginine, …]",NANOG protein expression,[5],decreased levels of protein
same,Effect on STAT3 phosphorylation (in words),[6],unaffected
same,cell viability in monolayer culture,[7],no significant difference in cell viability
same,OCT4 protein expression in the presence of SU5402,"[1]; peptide-treated wtD3 mESCs plus FGFR1 inhibitor SU5402, after 5 days",increased cell death and statistically significant loss of OCT protein expression
same,Loss of Nanog,[8]; [14],YES
same,Loss of Nr0b1,[8]; [14],YES
same,Loss of Nr5a2,[8]; [14],YES
same,Loss of TBX3,[8]; [14],YES
same,Transcripts with decreased expression compared to control (qPCR),"[8]; wtD3 mESCs, 10 μM peptide, 24 h","Nanog, Tbx3, Nr0b1 and Nr5a2"
same,Transcripts unchanged / not inhibited (qPCR),"[8]; wtD3 mESCs, 24 h treatment",Klf4 and Esrrb
same,pERK1/2 compared to untreated mESCs,[9],decreased pERK1/2
same,Binding of fluorescent-tagged peptide to wtD3 versus Ecad−/− mESCs,[2],binds specifically to E-cadherin
same,KD,[4],did not produce a strong enough response to perform equilibrium analysis
same,Effect on cell-cell contact (in words),[3],did not induce loss of cell-cell contact
SWALYYPLRANL [EpepE3A],Kd,[4],6.9 µM
SWEAYYPLRANL [EpepL4A],Kd,[4],3.61 µM
SWELAYPLRANL [EpepY5A],Kd,[4],8.82 µM
SWELYAPLRANL [EpepY6A],Kd,[4],21.4 µM
SWELYYP [EpepΔCtm],viable population (lower left box),[10],59.1%
same,Kd,[4],2.7 µM
SWELYYRLRANL-NH2 (C-terminus assumed) [EpepP7R],solvent required for complete solubilization,[11]; 100 mM stock,10%v/v DMSO/H2O
same,solubility in water,"[11]; lyophilized powder, stock in water",< 100 mM
same,Loss of cell-cell contact (10μM)?,"[3]; mESCs, 10 μM, Fig. 6a summary",YES
same,Effect on cell-cell contact (in words),[3],"Abrogation of E-cadherin mediated cell-cell contact was observed with EpepP7R (Fig. 5c and Figure S1b), although cell dissociation was reduced compared to Epep"
SWELYYRLRANL [EpepP7R],Kd,[12],3.87 µM
AWELYYPLRANL [Epep (E-cadherin binding peptide H-…-NH2) S1A],Kd,[13],1190 nM
